# Experimental data reported in PMC10761933, “Acquired and intrinsic resistance to vemurafenib in BRAF^V600E ‐driven melanoma brain metastases” (FEBS Open Bio, 2023).
# Like-named read-outs stand apart in the source and are kept apart here.
# What was measured:
# [1] = Oral vemurafenib plasma pharmacokinetics in tumor‐free WT and Abcb1a/b;Abcg2−/− FVB nude mice; format: in vivo; details: mean ± SD; for Cmax / Tmax / half-life: FVB nude, mouse, plasma, po; for half-life: read-out: t 1/2 (elimination half‐life) (converted)
# Protocol: To establish vemurafenib plasma kinetics, tumor‐free FVB WT, and Abcb1a/b;Abcg2 ^ −/− nude mice received vemurafenib orally (p.o.) by gavage at indicated doses. Elacridar (100 mg·kg^−1) was administrated p.o. by gavage 4 h before vemurafenib. Blood was sampled from the tail vein at 15 min, 1, 2, 4, 8, and 24 h after the administration. The plasma was obtained by centrifugation (5 min, 2000 g, 4 °C). Vemurafenib was extracted from plasma by diethyl ether liquid–liquid extraction. Extracts were dried using a Savant SpeedVac Concentrator (Thermo Fisher Scientific, Waltham, MA, USA), reconstituted in MeCN : water (30 : 70), and subjected to liquid chromatography/tandem mass spectrometry (LC/MS–MS) analysis. Vemurafenib‐^13C6 was used as an internal standard.
# The LC–MS/MS system consisted of an API 3000 mass spectrometer (Sciex, Framingham, MA, USA) coupled to an UltiMate 3000 LC System (Dionex, Sunnyvale, CA, USA). Samples were separated using a ZORBAX Extend‐C18 column (Agilent, Santa Clara, CA, USA), preceded by a Securityguard C18 precolumn (Phenomenex, Utrecht, the Netherlands). Elution was done using a mixture of mobile phase A (0.1% formic acid in water (v/v)) and mobile phase B (methanol) in a 5 min gradient from 20% to 95% B, followed by 95% B that was maintained for 3 min and then re‐equilibrated at 20% B. Multiple reaction monitoring parameters were 490.2/383.1 (vemurafenib) and 496.2/389.1 (vemurafenib‐^13C6). System control and data analysis were done using ANALYST ® 1.6.2 software (AB Sciex, Foster City, CA, USA).
# Pharmacokinetic parameters were calculated with PKSOLVER [30]. All comparisons involving more than two groups were analyzed by one‐way ANOVA followed by Bonferroni post hoc tests. Differences in fractions of ABC transporter‐expressing cells between brain and skin lesions were compared using the Binomial test in which the skin fraction was considered as expected and the brain fraction was considered as observed. Correlations were determined using simple linear regression. Kaplan–Meier curves were drawn using GRAPHPAD PRISM v7 (GraphPad Software, La Jolla, CA, USA), and statistically significant survival differences were determined using the log‐rank test. Statistical significance was accepted in all tests when P < 0.05.
# [2] = set-up: method as in PMID 25933211; details: clinical study; cited from earlier work
# [3] = tested on: intracranial A375 tumors; test: Immunohistochemical analysis of vemurafenib‐resistant A375 melanoma brain metastases; format: in vivo; details: Abcb1a/b;Abcg2−/− mice, 10 mg·kg^−1 × 10d, vs untreated
# Protocol: Mouse brains were fixed in 4% (v/v) formaldehyde. Alternatively, whole heads without skin were fixed in 4% (v/v) formaldehyde and 5% (v/v) glacial acetic acid and subsequently decalcified using a 6.5% (v/v) formic acid solution for 3 days at 37 °C. After fixation, samples were paraffin embedded and sliced into 4 μm thick sections. Whole head slides were stained for hematoxylin and eosin (H&E), human vimentin (1 : 4000; M0725; DakoCytomation, Glostrup, Denmark), P‐gp (1 : 200; 13978; Cell Signaling Technology, Danvers, MA, USA), BCRP (1 : 400; ab24115; Abcam, Cambridge, UK), and CD31 (1 : 200; ab28364; Abcam). Vessel positivity for P‐gp, BCRP, and CD31, as quantified in Fig. 1B, was manually scored in at least 200 vessels per staining. Specific antibody staining for P‐gp and BCRP was validated previously using whole head slices from Abcb1a/b;Abcg2 ^ −/− mice (fig. S2 from).
# Brain slides were stained for H&E, PDGFRβ (1 : 50; 3169; Cell Signaling Technology), phospho‐MET (1 : 150; 3077; Cell Signaling Technology), MET (1 : 100; AF527; R&D Systems, Minneapolis, MN, USA), phospho‐IGF1R (1 : 40 000; sc‐101703; Santa Cruz Biotechnology, Dallas, TX, USA), AXL (1 : 100; 8661; Cell Signaling Technology), NGFR (1 : 400; 8238; Cell Signaling Technology), phospho‐EGFR (1 : 600; ab40815; Abcam), EGFR (1 : 200; ab52894; Abcam), BRAF^V600E (1 : 100; E19290; SpringBioscience, Pleasanton, CA, USA), phospho‐ERK1/2 (1 : 200; 4370; Cell Signaling Technology), phospho‐AKT (1 : 8000; 4060; Cell Signaling Technology), phospho‐S6 (1 : 1000; 2211; Cell Signaling Technology), phospho‐4EBP1 (1 : 100; 2855; Cell Signaling Technology), 4EBP1 (1 : 1200; 9644; Cell Signaling Technology), SOX10 (1 : 100; sc‐17342; Santa Cruz Biotechnology), MITF (1 : 100; 284 M‐94; Cell Marque, Rocklin, CA, USA), and Ki‐67 (1 : 3000; ab15580; Abcam).
# [4] = Abcb1a/b;Abcg2−/− mice, 10 mg·kg^−1 p.o.
# [5] = Abcb1a/b;Abcg2−/− mice, 25 mg·kg^−1 p.o.
# [6] = 10 mg/kg, Abcb1a/b;Abcg2−/− mice, 10 mg·kg^−1 p.o.
# [7] = 10 mg/kg, WT mice, 10 mg·kg^−1 p.o. + elacridar 100 mg·kg^−1 p.o. 4 h before
# [8] = 25 mg/kg, Abcb1a/b;Abcg2−/− mice, 25 mg·kg^−1 p.o.
# [9] = 25 mg/kg, WT mice, 25 mg·kg^−1 p.o.
# [10] = WT mice, 10 mg·kg^−1 p.o. + elacridar 100 mg·kg^−1 p.o. 4 h before
smiles,measurement,setting,value
CCCS(=O)(=O)Nc1ccc(F)c(C(=O)c2c[nH]c3ncc(-c4ccc(Cl)cc4)cc23)c1F [vemurafenib],AUCplasma 0–4 h,[1]; [4],56 ± 7.2 µg·mL/h
same,AUCplasma 0–24 h,[1]; [4],230 ± 35 µg·mL/h
same,AUCplasma 0–∞,[1]; [4],250 ± 49 µg·mL/h
same,CL/F (apparent clearance after oral administration),[1]; [4],0.04 ± 0.006 L·kg/h
same,AUCplasma 0–4 h,[1]; [5],140 ± 16 µg·mL/h
same,AUCplasma 0–24 h,[1]; [5],530 ± 68 µg·mL/h
same,AUCplasma 0–∞,[1]; [5],610 ± 84 µg·mL/h
same,CL/F (apparent clearance after oral administration),[1]; [5],0.04 ± 0.006 L·kg/h
same,Cmax,[1]; [6],17000 ± 1700 ng/mL
same,Tmax,[1]; [6],2.8 ± 1.1 h
same,half-life,[1]; [6],6.7 ± 1.4 h
same,Tmax,[1]; [7],3.6 ± 0.9 h
same,half-life,[1]; [7],5.8 ± 0.6 h
same,Cmax,[1]; [7],12000 ± 1700 ng/mL
same,Cmax,[1]; [8],41000 ± 4500 ng/mL
same,Tmax,[1]; [8],1.9 ± 0.9 h
same,half-life,[1]; [8],8.5 ± 1.2 h
same,Cmax,[1]; [9],42000 ± 7700 ng/mL
same,Tmax,[1]; [9],2.6 ± 1.3 h
same,half-life,[1]; [9],2.1 ± 0.2 h
same,AUCplasma 0–4 h,[1]; [10],38 ± 5.7 µg·mL/h
same,AUCplasma 0–24 h,[1]; [10],180 ± 24 µg·mL/h
same,AUCplasma 0–∞,[1]; [10],190 ± 23 µg·mL/h
same,CL/F (apparent clearance after oral administration),[1]; [10],0.05 ± 0.006 L·kg/h
same,AUCplasma 0–4 h,"[1]; WT mice, 25 mg·kg^−1 p.o.",147 ± 28 µg·mL/h
same,AUCplasma 0–24 h,"[1]; WT mice, 25 mg·kg^−1 p.o.",390 ± 98 µg·mL/h
same,AUCplasma 0–∞,"[1]; WT mice, 25 mg·kg^−1 p.o.",390 ± 99 µg·mL/h
same,CL/F (apparent clearance after oral administration),"[1]; WT mice, 25 mg·kg^−1 p.o.",0.07 ± 0.017 L·kg/h
same,concentration in cerebrospinal fluid (CSF) as share of the plasma concentration,[2],< 1%
same,PDGFRβ expression (immunohistochemistry),[3],appeared to be diminished
same,proliferation marker Ki‐67 (immunohistochemistry),[3],similarly unaffected
same,immunohistochemical staining of phospho‐S6 and phospho‐4EBP1,[3]; n = 2 per group,profoundly reduced
